Results taken from patent US12258423B2, “Stapled and stitched polypeptides and uses thereof” (President and Fellows of Harvard College, priority 2013, dated 2025).

Test: Circular dichroism (CD) spectroscopy of peptide helicity
Conditions: unlabeled peptide, 10 mM sodium phosphate pH 7.0, FIG. 11D
Method: Circular Dichroism (CD) Spectroscopy: CD spectra (FIGS. 11A-11D) were obtained using unlabeled peptides in 10 mM sodium phosphate pH 7.0 buffer. The raw data has been converted to the concentration-independent unit of molar ellipticity. α-Helices typically show dual minima at approximately 208 nm and 222 nm and a maximum at approximately 192 nm.

## CC(=O)N[C@H](C(=O)N[C@@H](CO)C(=O)N[C@@H](Cc1ccccc1)C(=O)N[C@]12CCN(C1)C(=O)OCCCCOC(=O)N1CC[C@@](C(N)=O)(C1)NC(=O)[C@H](CC(C)C)NC(=O)[C@H](CC(C)C)NC(=O)[C@H](C)NC(=O)[C@H](Cc1[nH]cc3ccccc13)NC(=O)[C@H](Cc1ccc(O)cc1)NC(=O)[C@H](CCC(=O)O)NC2=O)C(C)O (single isomer, unassigned) [Ac-PM2 PyrR/PyrS Alloc-Stapled]
  α-helical character (CD spectrum): a-helical
